# Results: patent US7199115B2, “17α-fluorosteroids, pharmaceutical compositions containing 17α-fluorosteroids and a method of making them” (Schering AG, priority 2004, dated 2007)
# Read-outs that look alike come from different tables or passages of the source.
# Assays:
# Progesterone Receptor = biological target: T1, Progesterone Receptor (Oryctolagus cuniculus, UniProt P06186); test: Binding to progesterone receptor, uterus cytosol, tracer 3H-ORG 2058; settings: rabbit uterus cytosol, 0–4° C., 18 h, Progesterone=100%
# T1 construct: Biological material: Uterus cytosol, rabbit, pressed; from tissue; host or cells: rabbit uterus cytosol
# T1 sequence (P06186 1-930): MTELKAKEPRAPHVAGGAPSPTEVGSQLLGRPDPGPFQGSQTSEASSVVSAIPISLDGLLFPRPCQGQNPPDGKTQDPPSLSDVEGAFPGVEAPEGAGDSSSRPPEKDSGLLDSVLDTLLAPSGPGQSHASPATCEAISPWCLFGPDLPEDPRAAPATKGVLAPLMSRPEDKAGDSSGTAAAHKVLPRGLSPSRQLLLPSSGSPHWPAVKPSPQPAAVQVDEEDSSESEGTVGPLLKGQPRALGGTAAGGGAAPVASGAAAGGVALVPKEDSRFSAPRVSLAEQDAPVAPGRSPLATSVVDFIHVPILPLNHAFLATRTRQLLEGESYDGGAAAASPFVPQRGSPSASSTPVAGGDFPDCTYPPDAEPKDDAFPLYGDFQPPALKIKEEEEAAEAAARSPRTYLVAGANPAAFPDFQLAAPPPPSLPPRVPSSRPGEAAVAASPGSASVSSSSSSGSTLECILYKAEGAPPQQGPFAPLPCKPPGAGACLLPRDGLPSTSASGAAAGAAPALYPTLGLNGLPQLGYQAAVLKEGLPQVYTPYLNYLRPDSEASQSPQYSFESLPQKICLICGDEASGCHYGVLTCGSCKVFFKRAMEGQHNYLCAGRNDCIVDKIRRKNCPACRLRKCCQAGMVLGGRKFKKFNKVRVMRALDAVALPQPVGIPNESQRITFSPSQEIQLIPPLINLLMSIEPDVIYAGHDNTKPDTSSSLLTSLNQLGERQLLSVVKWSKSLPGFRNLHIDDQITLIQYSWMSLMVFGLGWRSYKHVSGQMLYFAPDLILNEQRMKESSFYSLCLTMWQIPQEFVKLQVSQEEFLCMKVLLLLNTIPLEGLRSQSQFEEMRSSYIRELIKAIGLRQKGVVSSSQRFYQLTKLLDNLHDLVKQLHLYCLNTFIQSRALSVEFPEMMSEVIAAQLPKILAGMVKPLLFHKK
# Excerpt: Binding of Compound I to Progesterone Receptor
# PR-B = biological target: T2, PR-B (Homo sapiens, UniProt P06401); test: PR-B antagonisms and agonisms; assay type: cell-based
# T2 sequence (P06401 1-933): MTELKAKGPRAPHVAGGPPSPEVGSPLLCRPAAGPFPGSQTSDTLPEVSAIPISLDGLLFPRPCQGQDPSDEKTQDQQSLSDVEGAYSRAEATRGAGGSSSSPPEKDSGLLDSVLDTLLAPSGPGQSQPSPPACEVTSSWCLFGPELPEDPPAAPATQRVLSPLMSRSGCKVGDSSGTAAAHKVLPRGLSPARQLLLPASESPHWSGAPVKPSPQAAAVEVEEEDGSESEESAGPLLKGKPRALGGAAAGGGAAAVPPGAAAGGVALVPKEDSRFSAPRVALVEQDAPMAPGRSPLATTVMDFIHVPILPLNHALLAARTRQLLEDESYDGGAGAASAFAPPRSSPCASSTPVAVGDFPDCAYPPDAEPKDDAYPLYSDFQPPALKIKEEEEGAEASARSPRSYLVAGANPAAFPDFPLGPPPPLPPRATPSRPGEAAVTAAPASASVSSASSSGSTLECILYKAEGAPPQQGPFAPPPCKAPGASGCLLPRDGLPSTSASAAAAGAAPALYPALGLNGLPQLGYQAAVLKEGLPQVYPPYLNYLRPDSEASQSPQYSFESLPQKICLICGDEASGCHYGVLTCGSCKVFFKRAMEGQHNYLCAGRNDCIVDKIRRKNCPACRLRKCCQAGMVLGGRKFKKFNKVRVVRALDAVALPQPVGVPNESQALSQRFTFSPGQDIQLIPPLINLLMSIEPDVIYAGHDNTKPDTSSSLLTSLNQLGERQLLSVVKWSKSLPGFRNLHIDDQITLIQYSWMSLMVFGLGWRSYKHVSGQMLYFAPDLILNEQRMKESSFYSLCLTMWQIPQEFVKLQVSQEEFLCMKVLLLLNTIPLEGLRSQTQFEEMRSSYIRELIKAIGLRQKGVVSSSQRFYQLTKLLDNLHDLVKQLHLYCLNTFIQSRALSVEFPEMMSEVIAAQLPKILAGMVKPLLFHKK
# pregnancy maintenance = test: Gestagen activity in pregnancy maintenance test; assay type: in vivo; settings: mouse
# 5α-reductase-Type-2 = biological target: T3, 5α-reductase-Type-2 (Homo sapiens, UniProt P31213); test: 5α-reductase-Type-2 activity in genital skin homogenates; assay type: biochemical; settings: optimum conditions at pH=5.5
# T3 construct: Under optimum conditions at pH=5.5 in genital skin homogenates; from tissue; host or cells: genital skin homogenates
# T3 sequence (P31213 1-254): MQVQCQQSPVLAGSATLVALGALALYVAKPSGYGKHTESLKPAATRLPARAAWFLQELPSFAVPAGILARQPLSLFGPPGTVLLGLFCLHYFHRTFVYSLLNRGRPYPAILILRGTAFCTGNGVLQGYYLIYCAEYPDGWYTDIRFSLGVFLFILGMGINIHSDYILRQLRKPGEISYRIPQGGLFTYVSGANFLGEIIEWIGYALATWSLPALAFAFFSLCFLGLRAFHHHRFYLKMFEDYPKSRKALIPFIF
# Excerpt: Subsequently experimental data for progesterone receptor binding, 5α-reductase-type-2 activity in genital skin homogenates and in vivo data in the case of the exemplary compound of the invention, (E)-17α-fluoro-3-oxo-estra-4-en-17β-carbaldehyde oxime, are reported here.
SMILES,Relative Binding affinity RBA (Progesterone Receptor) [%],"IC50 (PR-B; PR-B agonism, read-out: Agonism IC50) [nM]","IC50 (PR-B; PR-B antagonism, read-out: Antagonism IC50) [nM]",Rate of Maintained Gravidity (pregnancy maintenance; dosage 0.003 Mg/animal/day),Rate of Maintained Gravidity (pregnancy maintenance; dosage 0.03 Mg/animal/day),Rate of Maintained Gravidity (pregnancy maintenance; dosage 0.3 Mg/animal/day),IC50 (5α-reductase-Type-2) [nM]
CC(=O)[C@H]1CC[C@H]2[C@@H]3CCC4=CC(=O)CC[C@]4(C)[C@H]3CC[C@]12C [Progesterone],100,–,–,–,–,–,–
"C[C@]12CCC3C4CCC(=O)C=C4CCC3C1CC[C@]2(F)/C=N/O (stereo partly drawn) [Compound 7, (E)-17α-fluoro-3-oxo-estra-4-en-17β-carbaldehyde oxime]",–,0.25,0.339,0/3,2/2,3/3,245
